Measurements: patent publication US10479780B2, “Aminopyrazole derivatives” (Chugai Seiyaku Kabushiki Kaisha, priority 2015, dated 2019)

Key:
Format in all cases: biochemical
[1] = target: T1, human Src enzyme (Homo sapiens, UniProt P12931); experiment: Src enzyme inhibitory activity (time-resolved fluorometry, biotinylated peptide phosphorylation); details: read-out: SRC_IC50
T1 construct: purchased Carna Biosciences, Inc. 08-173
How it was run: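 Compounds were tested for blocking tyrosine phosphorylation of a biotinylated peptide substrate by recombinant human Src. Phosphorylated product was quantified by time-resolved fluorometry using europium cryptate and XL665 conjugates, and IC50 was calculated against the compound-free control.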

[2] = target: T2, human Yes1 enzyme (Homo sapiens, UniProt P07947); experiment: Yes1 enzyme inhibitory activity (time-resolved fluorometry, biotinylated peptide phosphorylation); details: read-out: YES_IC50
T2 construct: made in house
How it was run: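 Inhibition was expressed against a compound-free control to give IC50, using TR-FRET read-out (Eu-cryptate anti-pTyr antibody, streptavidin-XL665).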

[3] = target: T3, human Lck enzyme (Homo sapiens, UniProt P06239); experiment: Lck enzyme inhibitory activity (time-resolved fluorometry, biotinylated peptide phosphorylation); details: read-out: LCK_IC50
T3 construct: purchased Carna Biosciences, Inc. 08-170
How it was run: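 Readout pairs a europium cryptate-labelled anti-phosphotyrosine antibody with XL665-streptavidin, measured by time-resolved fluorescence. IC50 derived from percent inhibition against untreated controls.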

T2 sequence (P07947 whole entry): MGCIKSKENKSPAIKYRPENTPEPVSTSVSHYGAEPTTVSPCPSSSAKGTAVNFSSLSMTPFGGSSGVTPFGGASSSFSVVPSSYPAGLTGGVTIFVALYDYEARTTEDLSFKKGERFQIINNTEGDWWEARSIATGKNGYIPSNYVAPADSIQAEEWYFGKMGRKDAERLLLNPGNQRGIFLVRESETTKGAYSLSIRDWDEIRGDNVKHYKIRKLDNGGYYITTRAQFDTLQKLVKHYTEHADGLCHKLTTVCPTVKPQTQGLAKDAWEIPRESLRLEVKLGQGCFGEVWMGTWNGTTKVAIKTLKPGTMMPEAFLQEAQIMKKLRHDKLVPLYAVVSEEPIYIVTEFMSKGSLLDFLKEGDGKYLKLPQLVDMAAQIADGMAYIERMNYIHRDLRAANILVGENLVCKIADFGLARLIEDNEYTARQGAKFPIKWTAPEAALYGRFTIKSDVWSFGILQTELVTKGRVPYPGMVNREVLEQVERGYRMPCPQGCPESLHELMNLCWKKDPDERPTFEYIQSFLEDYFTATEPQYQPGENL
T3 sequence (P06239 whole entry): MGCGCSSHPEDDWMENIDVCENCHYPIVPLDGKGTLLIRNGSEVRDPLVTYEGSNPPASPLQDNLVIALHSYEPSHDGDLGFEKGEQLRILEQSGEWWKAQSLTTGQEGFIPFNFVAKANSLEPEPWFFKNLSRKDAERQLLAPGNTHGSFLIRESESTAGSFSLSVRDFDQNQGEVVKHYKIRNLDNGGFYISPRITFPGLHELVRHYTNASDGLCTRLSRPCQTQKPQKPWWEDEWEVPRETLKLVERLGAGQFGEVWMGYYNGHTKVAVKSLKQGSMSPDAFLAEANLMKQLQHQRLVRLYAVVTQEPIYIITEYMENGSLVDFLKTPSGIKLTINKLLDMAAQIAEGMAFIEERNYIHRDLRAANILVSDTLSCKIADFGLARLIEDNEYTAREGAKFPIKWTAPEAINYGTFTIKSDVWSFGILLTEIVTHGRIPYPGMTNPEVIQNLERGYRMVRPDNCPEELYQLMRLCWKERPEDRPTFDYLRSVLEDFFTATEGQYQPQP
T1 sequence (P12931 whole entry): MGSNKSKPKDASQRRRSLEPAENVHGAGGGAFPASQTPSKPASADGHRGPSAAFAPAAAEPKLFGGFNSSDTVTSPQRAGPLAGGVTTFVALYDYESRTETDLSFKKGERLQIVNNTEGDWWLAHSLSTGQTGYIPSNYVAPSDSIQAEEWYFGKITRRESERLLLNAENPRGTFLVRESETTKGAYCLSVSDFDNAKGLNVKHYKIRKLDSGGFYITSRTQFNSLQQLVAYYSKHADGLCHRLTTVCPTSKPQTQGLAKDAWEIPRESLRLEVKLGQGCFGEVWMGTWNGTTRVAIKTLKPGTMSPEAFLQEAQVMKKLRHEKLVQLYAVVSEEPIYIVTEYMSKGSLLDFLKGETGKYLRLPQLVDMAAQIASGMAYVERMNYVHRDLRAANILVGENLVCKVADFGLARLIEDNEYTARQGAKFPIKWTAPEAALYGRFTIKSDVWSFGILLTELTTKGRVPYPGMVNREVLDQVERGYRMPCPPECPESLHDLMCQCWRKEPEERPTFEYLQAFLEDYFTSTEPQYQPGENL

IC50 [1] [nM]	IC50 [2] [nM]	IC50 [3] [nM]	SMILES
73	2.8	19	Cc1cc2cc(C(=O)c3cnn(-c4cnc(Oc5c(F)cccc5F)cc4C)c3N)[nH]c2cc1N1CC(C)(C)NS1(=O)=O [Example 5-1-313, [5-amino-1-[6-(2,6-difluorophenoxy)-4-methylpyridin-3-yl]pyrazol-4-yl]-[6-(4,4-dimethyl-1,1-dioxo-1,2,5-thiadiazolidin-2-yl)-5-methyl-1H-indol-2-yl]methanone]
480	9.6	150	Cc1cc2cc(C(=O)c3cnn(-c4cnc(Oc5c(F)cccc5F)cc4C)c3N)[nH]c2cc1NS(=O)(=O)C1CCCCC1 [Example 5-1-314, N-[2-[5-amino-1-[6-(2,6-difluorophenoxy)-4-methylpyridin-3-yl]pyrazole-4-carbonyl]-5-methyl-1H-indol-6-yl]cyclohexanesulfonamide]
330	8.1	130	Cc1cc(Oc2c(F)cccc2F)ncc1-n1ncc(C(=O)c2cc3cc(OCC(F)F)c(NS(=O)(=O)C4CCCCC4)cc3[nH]2)c1N [Example 5-1-315, N-[2-[5-amino-1-[6-(2,6-difluorophenoxy)-4-methylpyridin-3-yl]pyrazole-4-carbonyl]-5-(2,2-difluoroethoxy)-1H-indol-6-yl] cyclohexanesulfonamide]
170	6.2	29	Cc1cc2cc(C(=O)c3cnn(-c4cnc(Oc5c(F)cccc5F)cc4C)c3N)[nH]c2cc1N1C(=O)NC2(CCCCC2)C1=O [Example 5-1-316, 3-[2-[5-amino-1-[6-(2,6-difluorophenoxy)-4-methylpyridin-3-yl]pyrazole-4-carbonyl]-5-methyl-1H-indol-6-yl]-1,3-diazaspiro[4.5] decane-2,4-dione]
500	16	110	Cc1cc2cc(C(=O)c3cnn(-c4cnc(Oc5c(F)cccc5F)cc4C)c3N)[nH]c2cc1NS(=O)(=O)C1CCCC1 [Example 5-1-317, N-[2-[5-amino-1-[6-(2,6-difluorophenoxy)-4-methylpyridin-3-yl]pyrazole-4-carbonyl]-5-methyl-1H-indol-6-yl]cyclopentanesulfonamide]
350	10	120	Cc1cc(Oc2c(F)cccc2F)ncc1-n1ncc(C(=O)c2cc3cc(OCC(F)F)c(NS(=O)(=O)C4CCCC4)cc3[nH]2)c1N [Example 5-1-318, N-[2-[5-amino-1-[6-(2,6-difluorophenoxy)-4-methylpyridin-3-yl]pyrazole-4-carbonyl]-5-(2,2-difluoroethoxy)-1H-indol-6-yl] cyclopentanesulfonamide]
88	2.8	18	Cc1cc(Oc2c(F)cccc2F)ncc1-n1ncc(C(=O)c2cc3cc(OCC(F)F)c(NS(=O)(=O)C4CCOCC4)cc3[nH]2)c1N [Example 5-1-319, N-[2-[5-amino-1-[6-(2,6-difluorophenoxy)-4-methylpyridin-3-yl]pyrazole-4-carbonyl]-5-(2,2-difluoroethoxy)-1H-indol-6-yl]oxane-4-sulfonamide]
680	18	140	Cc1cc(Oc2c(F)cccc2F)ncc1-n1ncc(C(=O)c2cc3cc(SC(F)F)c(NS(=O)(=O)CCCF)cc3[nH]2)c1N [Example 5-1-320, N-[2-[5-amino-1-[6-(2,6-difluorophenoxy)-4-methylpyridin-3-yl]pyrazole-4-carbonyl]-5-(difluoromethylsulfanyl)-1H-indol-6-yl]-3-fluoropropane-1-sulfonamide]
130	5.8	34	Cc1cc(Oc2c(F)cccc2F)ncc1-n1ncc(C(=O)c2cc3cc(OCC(F)F)c(N4CC(C)(C)NS4(=O)=O)cc3[nH]2)c1N [Example 5-1-321, [5-amino-1-[6-(2,6-difluorophenoxy)-4-methylpyridin-3-yl]pyrazol-4-yl]-[5-(2,2-difluoroethoxy)-6-(4,4-dimethyl-1,1-dioxo-1,2,5-thiadiazolidin-2-yl)-1H-indol-2-yl]methanone]
70	4.1	22	Cc1cc(Oc2ccccc2F)ccc1-n1ncc(C(=O)c2cc3cc(OCC(F)F)c(N4CC(C)(C)NS4(=O)=O)cc3[nH]2)c1N [Example 5-1-322, [5-amino-1-[4-(2-fluorophenoxy)-2-methylphenyl]pyrazol-4-yl]-[5-(2,2-difluoroethoxy)-6-(4,4-dimethyl-1,1-dioxo-1,2,5-thiadiazolidin-2-yl)-1H-indol-2-yl]methanone]
230	9.1	40	Cc1cc(Oc2ccccc2F)ccc1-n1ncc(C(=O)c2cc3cc(OCC(F)F)c(N4CC5(CCCC5)NS4(=O)=O)cc3[nH]2)c1N [Example 5-1-323, [5-amino-1-[4-(2-fluorophenoxy)-2-methylphenyl]pyrazol-4-yl]-[5-(2,2-difluoroethoxy)-6-(2,2-dioxo-2λ6-thia-1,3-diazaspiro[4.4]nonan-3-yl)-1H-indol-2-yl] methanone]
230	10	19	Cc1cc(Oc2c(F)cccc2F)ncc1-n1ncc(C(=O)c2cc3cc(SC(F)F)c(N4C(=O)NC(C)(C)C4=O)cc3[nH]2)c1N [Example 5-1-324, 3-[2-[5-amino-1-[6-(2,6-difluorophenoxy)-4-methylpyridin-3-yl]pyrazole-4-carbonyl]-5-(difluoromethylsulfanyl)-1H-indol-6-yl]-6,5-dimethylimidazolidine-2,4-dione]

Second part, the molecule before the results:

SMILES	IC50 [1] [nM]	IC50 [2] [nM]	IC50 [3] [nM]
Cc1cc(Oc2c(F)cccc2F)ncc1-n1ncc(C(=O)c2cc3cc(C(C)C)c(NS(=O)(=O)N4C5CCC4COC5)cc3[nH]2)c1N [Example 5-1-303, N-[2-[5-amino-1-[6-(2,6-difluorophenoxy)-4-methylpyridin-3-yl]pyrazole-4-carbonyl]-5-propan-2-yl-1H-indol-6-yl]-3-oxa-8-azabicyclo [3.2.1]octane-8-sulfonamide]	1500	27	320
Cc1cc(Oc2c(F)cccc2F)ncc1-n1ncc(C(=O)c2cc3cc(C(C)C)c(NS(=O)(=O)C4CCCCC4)cc3[nH]2)c1N [Example 5-1-304, N-[2-[5-amino-1-[6-(2,6-difluorophenoxy)-4-methylpyridin-3-yl]pyrazole-4-carbonyl]-5-propan-2-yl-1H-indol-6-yl] cyclohexanesulfonamide]	1300	32	400
Cc1cc(Oc2c(F)cccc2F)ncc1-n1ncc(C(=O)c2cc3cc(C(C)C)c(NS(=O)(=O)CCCF)cc3[nH]2)c1N [Example 5-1-305, N-[2-[5-amino-1-[6-(2,6-difluorophenoxy)-4-methylpyridin-3-yl]pyrazole-4-carbonyl]-5-propan-2-yl-1H-indol-6-yl]-3-fluoropropane-1-sulfonamide]	380	9.8	84
Cc1cc(Oc2c(F)cccc2F)ncc1-n1ncc(C(=O)c2cc3cc(C(C)C)c(NS(=O)(=O)C4CCCC4)cc3[nH]2)c1N [Example 5-1-306, N-[2-[5-amino-1-[6-(2,6-difluorophenoxy)-4-methylpyridin-3-yl]pyrazole-4-carbonyl]-5-propan-2-yl-1H-indol-6-yl] cyclopentanesulfonamide]	630	23	150
Cc1cc(-n2ncc(C(=O)c3cc4cc(OC5CCN(C6CCCC6)CC5)c(-c5ccccc5F)cc4[nH]3)c2N)ccc1Oc1ccccc1F [Example 5-1-308, [5-amino-1-[4-(2-fluorophenoxy)-3-methylphenyl]pyrazol-4-yl]-[5-(1-cyclopentylpiperidin-4-yl)oxy-6-(2-fluorophenyl)-1H-indol-2-yl]methanone]	1300	7.7	200
Cc1cc(-n2ncc(C(=O)c3cc4cc(OC5CCN(C6CS(=O)(=O)C6)CC5)c(-c5ccccc5F)cc4[nH]3)c2N)ccc1Oc1ccccc1F [Example 5-1-309, [5-amino-1-[4-(2-fluorophenoxy)-3-methylphenyl]pyrazol-4-yl]-[5-[1-(1,1-dioxothietan-3-yl)piperidin-4-yl]oxy-6-(2-fluorophenyl)-1H-indol-2-yl]methanone]	3600	12	410
Cc1cc(Oc2c(F)cccc2F)ncc1-n1ncc(C(=O)c2cc3cc(OC4CCN(C5CCCC5)CC4)c(-c4ccccc4F)cc3[nH]2)c1N [Example 5-1-310, [5-amino-1-[6-(2,6-difluorophenoxy)-4-methylpyridin-3-yl]pyrazol-4-yl]-[5-(1-cyclopentylpiperidin-4-yl)oxy-6-(2-fluorophenyl)-1H-indol-2-yl]methanone]	38	3.4	22
Cc1cc(Oc2c(F)cccc2F)ncc1-n1ncc(C(=O)c2cc3cc(OC4CCN(C5CS(=O)(=O)C5)CC4)c(-c4ccccc4F)cc3[nH]2)c1N [Example 5-1-311, [5-amino-1-[6-(2,6-difluorophenoxy)-4-methylpyridin-3-yl]pyrazol-4-yl]-[5-[1-(1,1-dioxothietan-3-yl)piperidin-4-yl]oxy-6-(2-fluorophenyl)-1H-indol-2-yl]methanone]	48	3.6	15
Cc1cc(Oc2c(F)cccc2F)ncc1-n1ncc(C(=O)c2cc3cc(F)c(N4C(=O)NC5(CCC5)C4=O)cc3[nH]2)c1N [Example 5-1-312, 7-[2-[5-amino-1-[6-(2,6-difluorophenoxy)-4-methylpyridin-3-yl]pyrazole-4-carbonyl]-5-fluoro-1H-indol-6-yl]-5,7-diazaspiro[3.4]octane-6,8-dione]	160	3.5	10
